Values after ≈ are worked out from the molar mass of the structure shown. Read-outs that look alike come from different tables or passages of the source.
Experiments:
Assay type in all cases: cell-based
Staphylococcus aureus = experiment: MIC by broth dilution, Staphylococcus aureus
Protocol: (§1) The minimal inhibitory concentration (MIC), the lowest concentration of the antibiotic which inhibits growth of the test organism, is determined by the broth dilution method using Muller-Hinton II […] (Baltimore Biological Laboratories) following the recommendations of the National Committee for Clinical Laboratory Standards [Methods for dilution antimicrobial susceptibility tests for bacteria that grow aerobically. Approved standard M7-A2. National Committee for Clinical Laboratory Standards, Villanova, Pa.].
(§2) An inoculum level of 5×10^5 CFU/ml, and a range of antibiotic concentrations (64–0.06 μg/ml) is used. The MIC is determined after the microtiter plates are incubated for 18 hours at 35° C. in an ambient air incubator. The test organisms comprise a spectrum of the Gram-positive bacteria Staphylococcus aureus, Streptococcus pneumoniae, and Enterococcus sp., the Gram-negative bacteria Escherichia coli, and the yeast Candida albicans. These organisms include recent clinical isolates that are resistant to methicillin and vancomycin.

Enterococcus faecalis = experiment: MIC by broth dilution, Enterococcus faecalis
Protocol: as §1, §2

[1] = tested on: Streptococcus pneumoniae GC 1894; experiment: MIC by broth dilution, Streptococcus pneumoniae GC 1894
Protocol: as §1, §2

Bacillus subtilis = experiment: MIC by broth dilution, Bacillus subtilis
Escherichia coli = experiment: MIC by broth dilution, Escherichia coli
Protocol: as §1, §2

Escherichia coli (imp) = experiment: MIC by broth dilution, Escherichia coli (imp)
Protocol: as §1, §2

Candida albicans = experiment: MIC by broth dilution, Candida albicans
Protocol: as §1, §2

[2] = 3 strains, including a methicillin-resistant strain (MRSA), 18 hours at 35° C., read-out: MIC
[3] = 2 strains, including a vancomycin-resistant strain (VRE), 18 hours at 35° C., read-out: MIC
[4] = Streptococcus pneumoniae, GC1894, Streptococcus pneumoniae GC 1894* (5% LHB), read-out: MIC
[5] = Streptococcus pneumoniae, GC1894, Streptococcus pneumoniae GC 1894+ (THY), read-out: MIC

SMILES	MIC (Staphylococcus aureus; [2]) [µg/mL]	MIC (Enterococcus faecalis; [3]) [µg/mL]	MIC [1, 4] [µg/mL]	MIC [1, 5] [µg/mL]	MIC (Bacillus subtilis; read-out: MIC) [µg/mL]	MIC (Escherichia coli; read-out: MIC) [µg/mL]	MIC (Escherichia coli (imp)) [µg/mL]	MIC (Candida albicans; read-out: MIC) [µg/mL]	MIC (Staphylococcus aureus; MRSA, 18 h) [µg/mL]	MIC (Enterococcus faecalis; VRE, 18 h) [µg/mL]	MIC ([1]; Streptococcus pneumoniae GC 1894+ (THY)) [µg/mL]	MIC ([1]; Streptococcus pneumoniae, GC1894) [µg/mL]	MIC (Bacillus subtilis) [µg/mL]	MIC (Escherichia coli) [µg/mL]	MIC (Candida albicans) [µg/mL]
COc1c2ccc3c(=O)c4cc(C)n(CC(=O)N5CC(C(=O)OC(C)C)NC(=O)C5C)c(=O)c4c(=O)c3c2c(O)c2c(=O)c3cccc(O)c3c(=O)c12 (centres unmarked) [Example 6, P175-A isopropyl ester]	1 to 4 (≈ 1.39 to 5.54 µM)	4 (≈ 5.54 µM)	2 (≈ 2.77 µM)	4 (≈ 5.54 µM)	8 (≈ 11.1 µM)	> 64	16 (≈ 22.2 µM)	> 64	–	–	–	–	–	–	–
COc1c2ccc3c(=O)c4cc(C)n(CC(=O)N5CC(C(=O)OCc6ccccc6)NC(=O)C5C)c(=O)c4c(=O)c3c2c(O)c2c(=O)c3cccc(O)c3c(=O)c12 (centres unmarked) [Example 7, P175-A benzyl ester]	0.12 to 2 (≈ 0.156 to 2.6 µM)	2 to 8 (≈ 2.6 to 10.4 µM)	0.5 (≈ 0.65 µM)	0.25 (≈ 0.325 µM)	4 (≈ 5.2 µM)	> 64	32 (≈ 41.6 µM)	> 64	–	–	–	–	–	–	–
COC(=O)COC(=O)C1CN(C(=O)Cn2c(C)cc3c(=O)c4ccc5c(OC)c6c(=O)c7c(O)cccc7c(=O)c6c(O)c5c4c(=O)c3c2=O)C(C)C(=O)N1 (centres unmarked) [Example 8A]	–	–	–	–	–	–	8 (≈ 10.6 µM)	–	0.5 to 2 (≈ 0.665 to 2.66 µM)	0.5 to 1 (≈ 0.665 to 1.33 µM)	64 (≈ 85.1 µM)	64 (≈ 85.1 µM)	1 (≈ 1.33 µM)	> 64	> 64
COc1c2ccc3c(=O)c4cc(C)n(CC(=O)N5CC(C(=O)O)NC(=O)C5C)c(=O)c4c(=O)c3c2c(O)c2c(=O)c3cccc(OCC(=O)O)c3c(=O)c12 (centres unmarked) [Example 9D]	8 to 16 (≈ 10.8 to 21.7 µM)	8 (≈ 10.8 µM)	> 64	64 (≈ 86.8 µM)	8 (≈ 10.8 µM)	> 64	> 64	> 64	–	–	–	–	–	–	–
COc1c2ccc3c(=O)c4cc(C)n(CC(=O)N5CC(C(=O)O)NC(=O)C5C)c(=O)c4c(=O)c3c2c(O)c2c(=O)c3cccc(O)c3c(=O)c12 (centres unmarked) [Example 3, P175-A]	0.06 to 0.25 (≈ 0.0883 to 0.368 µM)	< 0.06	16 (≈ 23.5 µM)	8 (≈ 11.8 µM)	0.12 (≈ 0.177 µM)	> 64	8 (≈ 11.8 µM)	> 64	–	–	–	–	–	–	–
COC(=O)C1CN(C(=O)Cn2c(C)cc3c(=O)c4ccc5c(OC)c6c(=O)c7c(O)cccc7c(=O)c6c(O)c5c4c(=O)c3c2=O)C(C)C(=O)N1 (centres unmarked) [Example 4, P175-A methyl ester]	0.06 to 0.12 (≈ 0.0865 to 0.173 µM)	< 0.06	1 (≈ 1.44 µM)	2 (≈ 2.88 µM)	0.12 (≈ 0.173 µM)	> 64	4 (≈ 5.77 µM)	> 64	–	–	–	–	–	–	–
CCOC(=O)C1CN(C(=O)Cn2c(C)cc3c(=O)c4ccc5c(OC)c6c(=O)c7c(O)cccc7c(=O)c6c(O)c5c4c(=O)c3c2=O)C(C)C(=O)N1 (centres unmarked) [Example 5, P175-A ethyl ester]	0.06 to 0.12 (≈ 0.0848 to 0.17 µM)	0.25 to 0.5 (≈ 0.353 to 0.707 µM)	0.5 (≈ 0.707 µM)	1 (≈ 1.41 µM)	0.25 (≈ 0.353 µM)	> 64	16 (≈ 22.6 µM)	> 64	–	–	–	–	–	–	–
